Tests used:
Format in all cases: biochemical
Details in all cases: continuous assay 60 min, reaction initiated by adding enzyme to substrate-inhibitor mixture
[1] = biological target: MCH-5 (Homo sapiens, UniProt Q14790); experiment: Dissociation constant Ki and irreversible rate constant k3 for irreversible inhibitors (Mch5)
[2] = biological target: T1, MCH-2 (Homo sapiens, UniProt P55212); experiment: Dissociation constant Ki and irreversible rate constant k3 for irreversible inhibitors (Mch2)
T1 sequence (P55212 24-179 limits assumed): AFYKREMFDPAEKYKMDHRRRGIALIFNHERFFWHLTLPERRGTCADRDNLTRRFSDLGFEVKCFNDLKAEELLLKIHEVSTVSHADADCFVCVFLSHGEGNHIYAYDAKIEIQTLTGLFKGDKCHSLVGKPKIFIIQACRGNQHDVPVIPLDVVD
T1 sequence (P55212 194-293 limits assumed): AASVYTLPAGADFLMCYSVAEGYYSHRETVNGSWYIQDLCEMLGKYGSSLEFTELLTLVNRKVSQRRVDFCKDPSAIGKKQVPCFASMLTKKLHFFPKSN

[3] = biological target: T2, mICE (Mus musculus, UniProt P29452); experiment: Dissociation constant Ki and irreversible rate constant k3 for irreversible inhibitors (ICE)
T2 sequence (P29452 123-296 limits assumed): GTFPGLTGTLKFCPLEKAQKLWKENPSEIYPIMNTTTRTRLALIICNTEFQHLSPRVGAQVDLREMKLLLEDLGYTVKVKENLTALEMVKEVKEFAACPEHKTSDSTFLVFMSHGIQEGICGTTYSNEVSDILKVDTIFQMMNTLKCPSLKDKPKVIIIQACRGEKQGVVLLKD
T2 sequence (P29452 315-402 limits assumed): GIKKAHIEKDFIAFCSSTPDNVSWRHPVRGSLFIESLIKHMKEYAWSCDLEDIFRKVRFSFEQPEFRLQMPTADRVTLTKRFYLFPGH

[4] = biological target: T3, CPP32 (Homo sapiens, UniProt P42574); experiment: Dissociation constant Ki and irreversible rate constant k3 for irreversible inhibitors (CPP32)
T3 sequence (P42574 29-175 limits assumed): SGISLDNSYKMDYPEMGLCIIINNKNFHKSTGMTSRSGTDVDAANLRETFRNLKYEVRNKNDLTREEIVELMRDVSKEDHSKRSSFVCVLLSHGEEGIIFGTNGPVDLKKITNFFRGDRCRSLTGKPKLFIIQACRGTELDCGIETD
T3 sequence (P42574 176-277 limits assumed): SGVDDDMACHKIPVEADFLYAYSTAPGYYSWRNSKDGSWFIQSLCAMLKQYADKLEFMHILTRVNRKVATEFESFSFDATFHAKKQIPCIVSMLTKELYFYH

Chain of MCH-5 (Q14790 217-374 limits assumed, species assumed): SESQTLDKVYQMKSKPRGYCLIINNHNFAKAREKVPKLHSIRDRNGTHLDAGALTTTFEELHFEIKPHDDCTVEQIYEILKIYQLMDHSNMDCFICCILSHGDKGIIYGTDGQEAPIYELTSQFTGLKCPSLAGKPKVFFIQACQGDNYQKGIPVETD
Chain of MCH-5 (Q14790 385-479 limits assumed, species assumed): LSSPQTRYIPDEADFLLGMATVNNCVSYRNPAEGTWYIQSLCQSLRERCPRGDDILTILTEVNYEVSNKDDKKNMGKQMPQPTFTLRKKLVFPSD

SMILES	Ki [1] [nM]	MCH-5 k3/Ki [1]	Ki [2] [nM]	MCH-2 k3/Ki [2]	Ki [3] [nM]	mICE k3/Ki [3]	CPP32 k3/Ki [4]	Ki [4] [nM]
CC(C)[C@H](NC(=O)C(=O)Nc1ccccc1F)C(=O)N[C@@H](CC(=O)O)C(=O)COc1c(F)c(F)cc(F)c1F [Example 90]	40	49,600 moles^−1 seconds^−1	221	11,200 moles^−1 seconds^−1	147	58,500 moles^−1 seconds^−1	5,560 moles^−1 seconds^−1	2270
CC(C)[C@H](NC(=O)C(=O)Nc1ccccc1C(F)(F)F)C(=O)N[C@@H](CC(=O)O)C(=O)COc1c(F)c(F)cc(F)c1F [Example 92]	6	41,000 moles^−1 seconds^−1	12	261,000 moles^−1 seconds^−1	11	1,044,000 moles^−1 seconds^−1	57,400 moles^−1 seconds^−1	175
C[C@H](NC(=O)C(=O)NCc1cccc2ccccc12)C(=O)N[C@@H](CC(=O)O)C(=O)COP(=O)(c1ccccc1)c1ccccc1 [Example 35]	23	82,700 moles^−1 seconds^−1	11	186,000 moles^−1 seconds^−1	35	191,000 moles^−1 seconds^−1	245,000 moles^−1 seconds^−1	22
CC(C)[C@H](NC(=O)C(=O)NC1CCCc2ccccc21)C(=O)N[C@@H](CC(=O)O)C(=O)COc1c(F)c(F)cc(F)c1F (stereo partly drawn) [Example 104]	5.2	456,000 moles^−1 seconds^−1	13	160,000 moles^−1 seconds^−1	4.5	2,320,000 moles^−1 seconds^−1	98,600 moles^−1 seconds^−1	84
COc1ccccc1NC(=O)C(=O)N[C@H](C(=O)N[C@@H](CC(=O)O)C(=O)COc1c(F)c(F)cc(F)c1F)C(C)C [Example 95]	3	2,680,000 moles^−1 seconds^−1	88	61,500 moles^−1 seconds^−1	6	2,068,000 moles^−1 seconds^−1	10,800 moles^−1 seconds^−1	1090
C[C@H](NC(=O)C(=O)Nc1cccc2c1CCCC2)C(=O)N[C@@H](CC(=O)O)C(=O)COC(=O)c1c(Cl)cccc1Cl [Example 62]	90	21,200 moles^−1 seconds^−1	23	126,000 moles^−1 seconds^−1	1020	16,900 moles^−1 seconds^−1	149,000 moles^−1 seconds^−1	101
CC(C)[C@H](NC(=O)C(=O)NCCc1ccccc1)C(=O)N[C@@H](CC(=O)O)C(=O)COc1c(F)c(F)cc(F)c1F [Example 80]	162	16,600 moles^−1 seconds^−1	175	12,600 moles^−1 seconds^−1	182	77,100 moles^−1 seconds^−1	13,400 moles^−1 seconds^−1	515
CC(C)[C@H](NC(=O)C(=O)Nc1nc2ccccc2[nH]1)C(=O)N[C@@H](CC(=O)O)C(=O)COc1c(F)c(F)cc(F)c1F [Example 88]	128	20,800 moles^−1 seconds^−1	1430	1,840 moles^−1 seconds^−1	359	27,400 moles^−1 seconds^−1	3,130 moles^−1 seconds^−1	3130
C[C@H](NC(=O)C(=O)NCc1ccccc1)C(=O)N[C@@H](CC(=O)O)C(=O)COc1c(F)c(F)cc(F)c1F [Example 51]	83	23,100 moles^−1 seconds^−1	70	42,800 moles^−1 seconds^−1	1010	13,900 moles^−1 seconds^−1	54,300 moles^−1 seconds^−1	370

From US7183260B2, “C-terminal modified oxamyl dipeptides as inhibitors of the ICE/ced-3 family of cysteine proteases” (Idun Pharmaceuticals, Inc., priority 1998, dated 2007)
